Patent US20100151520A1, “Translation Enhancer Elements Of Genes Encoding Human Tau Protein and Human Alpha-Synuclein Protein” (priority 2004, published 2010)
Entries after “also recorded” stand apart in the source; their conditions may differ.

Tests used:
α-synuclein protein = assay: Western blot of α-synuclein protein levels in treated SY5Y neuroblastoma cells; type: cell-based, human
α-synuclein mRNA = assay: Quantitative real-time PCR of α-synuclein mRNA levels in SY5Y cells; type: cell-based, human; settings: 6 or 16 hours, relative to beta actin (FIG. 4)
Procedure: (§1) Quantitative real-time PCR (qRTPCR) was used to measure steady-state mRNA levels for α-synuclein mRNA relative to […] in response to iron. Neuroblastoma (SY5Y) cells were treated with iron or desferrioxamine (DFO) for 6 hours or 16 hours and control cells were left untreated (U) for the same indicated times (i.e., 6 hours untreated=U6, and 16 hours untreated=U16). TfR mRNA was the experimental positive control mRNA.
(§2) The qRTPCR was conducted as follows. Total RNA was isolated from iron and desferrioxamine treated neuroblastoma cell line, SH-SY5Y according to manufacturers specification (RNAeasy Mini Kit, Qiagen, Valencia, Calif.). The optional on-column DNase digestion with the RNase-Free DNase set (Qiagen) was incorporated into all RNA isolations.
3 μg total RNA was primed with oligo-dT and the Superscript II enzyme according to manufacturer's instructions (Invitrogen, Carlsbad, Calif.) to synthesize […] cDNA. For qRTPCR, primer specificity was initially verified by searching for homology to genomic databases using NCBI BLAST. After completion of qRTPCR, the appropriately sized amplicon were confirmed by agarose gel electrophoresis. […] Fluorescence was measured at the end of each annealing cycle using the ABI Prism 7000 (Applied Biosystems, Foster City, Calif.). Average threshold cycle (Ct) values were measured in the exponential phase of the PCR reaction for each duplicate sample. […] Relative expression of the treated samples was determined by first normalizing against that of the untreated samples (ΔCT^sample−ΔCT^normal=ΔΔCT) and then calculating the fold change (fold change=2^−ΔΔCt).
(§3) Primers used for quantitative real-time PCR were as follows: […]
The details of the annealing temperature are as follows. […] The dsDNA-specific dye SYBR Green I incorporated into the PCR reaction buffer QuantiTech™ SYBR PCR (Qiagen) to allow for quantitative detection of the PCR product in a 25-μl reaction volume. […]

α-synuclein 5′ UTR = assay: Luciferase reporter assay, α-synuclein 5′UTR-pGL3 transfected neuroblastoma cells; type: cell-based, human; settings: 48 hours, luciferase controlled by α-synuclein 5′ UTR
Procedure: (§4) To determine whether α-synuclein 5′UTR sequences were iron responsive SH-SY5Y transfection experiments were performed using an ASN 5′UTR pGL3 construct compared to pGL3, and control vector in which the luciferase expression was translated in the absence of the α-synuclein 5′UTR.
A 46 base sequence (SEQ ID NO:21) of the α-synuclein 5′ UTR was synthesized with a HindIII site at the 5′ end and a Nco I site at the 3′ end (Integrated DNA Technologies, Coralville, Iowa) and then ligated into a pGL-3 vector (Promega, Madison Wis.) immediately in front of the luciferase gene, under the control of a SV40 promotor. Wild-type pGL3 or pGL3 containing the α-synuclein 5′ UTR insert upstream of the luciferase promotor (α-synuclein 5′UTR-pGL3) were used. Expression of green fluorescent protein (GFP) within the pGL3 vector, controlled by a SV40 late poly(A) signal was used to control for transfection efficiency. 8×10^5 neuroblastoma HYSY cells were seeded for 24 hours in 60-mm^2 dishes with 5 ml Dulbeccco's modified medium containing 10% fetal bovine serum. For transfection, cells were first rinsed 3× in Phosphate Buffered Saline (PBS) and then treated with 5 μg of purified DNA combined with PolyFect transfection reagent and growth medium, according to the manufacturer's specifications (Qiagen). After a 24 hours incubation at 37° and 5% CO2 to maximize transfection efficiency, cells were washed in PBS 3×, trypsonized and plated to 95% confluence in 96-well plates. Cells were allowed to seed in the 96-well plates for 12 hours in Dulbecco's modified medium containing 10% fetal bovine serum and ampicillin, to select for cells containing the plasmid, which contained an ampicillin resistance gene. […] Treatment medium was prepared fresh the day of experiment and incubated for 1 hour at 37° prior to the experiment to maximize solubility. […] Cells were lysed with 1× Bright-glo luciferase assay buffer and the lysates combined with bright-glo luciferase assay substrate warmed to 37°, according to the specifications of the manufacturer (Promega, Madison, Wis.). All experiments were performed in triplicate. Automated luciferase assays were performed with a Wallac 1420 multi-label counter. GFP expression was quantified at 489/509 nm with the same Wallac 1420 counter to control for transfection efficiency.

wild-type pGL3 vector = assay: Luciferase reporter assay, wild-type pGL3 control vector; type: cell-based
Procedure: as §4
A 46 base sequence (SEQ ID NO:21) of the α-synuclein 5′ UTR was synthesized with a HindIII site at the 5′ end and a Nco I site at the 3′ end (Integrated DNA Technologies, Coralville, Iowa) and then ligated into a pGL-3 vector (Promega, Madison Wis.) immediately in front of the luciferase gene, under the control of a SV40 promotor. Wild-type pGL3 or pGL3 containing the α-synuclein 5′ UTR insert upstream of the luciferase promotor (α-synuclein 5′UTR-pGL3) were used. Expression of green fluorescent protein (GFP) within the pGL3 vector, controlled by a SV40 late poly(A) signal was used to control for transfection efficiency. 8×10^5 neuroblastoma HYSY cells were seeded for 24 hours in 60-mm^2 dishes with 5 ml Dulbeccco's modified medium containing 10% fetal bovine serum. […] GFP expression was quantified at 489/509 nm with the same Wallac 1420 counter to control for transfection efficiency.

Tau mRNA = assay: Quantitative real-time PCR of Tau mRNA levels in SY5Y cells; type: cell-based, human; settings: for Tau mRNA levels: 6 or 16 hours (100 μM DFO where stated), FIG. 5
Procedure: Quantitative real-time PCR (QRTPCR) was performed on RNA extracted from iron/zinc and desferrioxamine treated mRNA. Methods for QRTPCR were as described for priming an α-synuclein amplicon (see Example 1) except that oligonucleotides were (NM016835Rev) 5′[…]3′ (SEQ ID NO:15) and (NM 016835For) 5′[…]3′ (SEQ ID NO:16).
(§5) Neuroblastoma cells (SY5Y) were treated with each agent for 6 hours or 16 hours and control cells were left untreated (U) for the same indicated times (i.e., 6 hours untreated=U6, and 16 hours untreated=U16).

[1] = tested on: Transferrin receptor mRNA (TfR mRNA); assay: Quantitative real-time PCR of transferrin receptor mRNA (positive control) in SY5Y cells; type: cell-based
Procedure: as §1, §2
3 μg total RNA was primed with oligo-dT and the Superscript II enzyme according to manufacturer's instructions (Invitrogen, Carlsbad, Calif.) to synthesize […] cDNA. For qRTPCR, primer specificity was initially verified by searching for homology to genomic databases using NCBI BLAST. After completion of qRTPCR, the appropriately sized amplicon were confirmed by agarose gel electrophoresis. All reactions were performed in duplicate in a 50 μl volume consisting of 3 μl cDNA, […] each of the forward and reverse primer of β-Actin and […] each of the forward and reverse primer of all other primer pairs, and the fluorescent SYBR Green I dye. Fluorescence was measured at the end of each annealing cycle using the ABI Prism 7000 (Applied Biosystems, Foster City, Calif.). Average threshold cycle (Ct) values were measured in the exponential phase of the PCR reaction for each duplicate sample. Average Ct values were normalized against that β-Actin amplified in parallel from the same sample. Relative expression of the treated samples was determined by first normalizing against that of the untreated samples (ΔCT^sample−ΔCT^normal=ΔΔCT) and then calculating the fold change (fold change=2^−ΔΔCt).
as §3
The details of the annealing temperature are as follows. […] For real-time PCR, the cDNA was amplified using an ABI PRISM 7000 Sequence Detection System (PE Applied Biosystems, Foster City, Calif.). The dsDNA-specific dye SYBR Green I incorporated into the PCR reaction buffer QuantiTech™ SYBR PCR (Qiagen) to allow for quantitative detection of the PCR product in a 25-μl reaction volume. The temperature profile of the reaction was 95° C. for 10 min, 40 cycles of denaturation at 95° C. for 15 sec, annealing at 60° C. for 30 sec, and extension at 72° C. for 30 sec. An internal housekeeping gene control, β-actin, was used to normalize differences in RNA isolation, RNA degradation, and the efficiencies of the RT. The size of the PCR product was first verified on a 1.5% agarose gel, followed by melting curve analysis.
as §5

[2] = molecular target: T1, Iron-Regulatory Protein-1 (IRP-1) binding to α-synuclein mRNA (Homo sapiens, UniProt P21399); assay: Immunoprecipitation RT-PCR of α-synuclein mRNA bound to IRP-1 in SH-SY5Y lysates; type: cell-based; settings: iron-treated SH-SY5Y cells, FIG. 6B
T1 construct: endogenous in cells; host or cells: SH-SY5Y neuroblastoma cells (lysates after treatment of the cells)
T1 sequence (P21399 1-889): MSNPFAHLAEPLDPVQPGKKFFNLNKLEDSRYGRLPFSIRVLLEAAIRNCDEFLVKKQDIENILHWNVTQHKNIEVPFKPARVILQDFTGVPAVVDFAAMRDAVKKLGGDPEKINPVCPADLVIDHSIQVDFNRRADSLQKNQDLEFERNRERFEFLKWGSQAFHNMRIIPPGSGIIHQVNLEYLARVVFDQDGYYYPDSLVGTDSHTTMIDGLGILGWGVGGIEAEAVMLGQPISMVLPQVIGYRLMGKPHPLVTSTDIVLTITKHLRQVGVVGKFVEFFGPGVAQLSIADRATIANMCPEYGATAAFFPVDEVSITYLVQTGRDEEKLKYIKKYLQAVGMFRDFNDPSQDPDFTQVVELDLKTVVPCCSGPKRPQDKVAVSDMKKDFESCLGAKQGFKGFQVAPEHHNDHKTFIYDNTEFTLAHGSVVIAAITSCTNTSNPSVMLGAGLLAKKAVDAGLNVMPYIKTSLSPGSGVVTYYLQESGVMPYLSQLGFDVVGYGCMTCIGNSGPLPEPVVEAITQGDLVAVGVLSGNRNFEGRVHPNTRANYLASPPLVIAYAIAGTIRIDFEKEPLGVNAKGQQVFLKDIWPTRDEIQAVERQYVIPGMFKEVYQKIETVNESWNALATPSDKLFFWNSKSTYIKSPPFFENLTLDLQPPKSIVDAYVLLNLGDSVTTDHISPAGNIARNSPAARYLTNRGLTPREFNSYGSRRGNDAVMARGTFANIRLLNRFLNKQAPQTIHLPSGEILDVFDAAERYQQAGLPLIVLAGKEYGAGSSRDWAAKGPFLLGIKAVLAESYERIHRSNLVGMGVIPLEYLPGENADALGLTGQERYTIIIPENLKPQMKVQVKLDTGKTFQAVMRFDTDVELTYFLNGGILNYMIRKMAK
Procedure: Neuroblastoma cells were treated with (i) DFO ([…]), (ii) feTf (10 μM) or remained untreated. Cells were lysed in RIPA buffer, and cytosolic extracts were immunoprecipitated with antibody to IRP-1 and IRP-2. After washing with Fe-beads the bound mRNA or superatant RNA was reverse transcribed and the mRNAs attached to the IRP-1/IRP—2 were identified by immunoprecipitation of RNA that selectively interacted with IRP-1/IRP-2 (method of Thomson, A. M., et al., Biol. Chem. 2005 Aug. 26; 280(34):30032-45. Epub 2005 Jun. 20.
We tested whether α-synuclein mRNA interacted with IRP-1 or IRP-2 by use of an RNA co-immunoprecipitation technique shown in FIG. 6. In this IPRT-PCR experiment α-synuclein mRNA was selectively co-immunoprecipitated with IRP-1 from neuroblastoma lysates (the presence of ASN mRNA was detected by PCR of cDNA reverse transcribed from mRNA immunopreciptated with IRP-1 on washed beads according to standard methods (Thomson, A. M., et al., (2005) J Biol Chem 280, 30032-30045). Ferritin mRNA was selectively immunopreciptated with both IRP-1 and IRP-2, whereas α-synuclein mRNA was selectively bound to IRP-1, not IRP-2. This technique was semi qualitative PCR, though the amount of α-synuclein mRNA attached IRP-1 was iron dependent in the experiment shown in FIG. 6B. […]

ferric ammonium citrate [FAC]
α-synuclein protein levels (monomer, 15 kDa) (α-synuclein protein; 100 μM FAC, 6 hour and 3 days, Western blot (FIG. 3)): increase | α-synuclein mRNA levels (α-synuclein mRNA): did not change as significantly although it was reduced; also recorded: not modulated | increase in luminescence (α-synuclein 5′ UTR; 10 mg/ml FAC): 5 fold | increase in luminescence (α-synuclein 5′ UTR; 100 mg/ml FAC, p<0.001): 20 fold | effect on luciferase activity (wild-type pGL3 vector): no effect | Tau mRNA levels (Tau mRNA): down regulated | TfR mRNA reduction by FAC ([1]; FIG. 5 (Tau experiment)): 4 fold

CC(=O)N(O)CCCCCNC(=O)CCC(=O)N(O)CCCCCNC(=O)CCC(=O)N(O)CCCCCN [DFO, desferrioxamine]
steady-state levels of α-synuclein protein (α-synuclein protein; 100 μM DFO (16 h)): reduced | intracellular levels of α-synuclein protein (α-synuclein protein; short-term (6 h) and long-term (3 d) desferrioxamine treatment): dramatic reduction | α-synuclein mRNA levels (α-synuclein mRNA): unchanged; also recorded: not modulated | α-synuclein mRNA levels (α-synuclein mRNA; listed as desferrioxamine): unchanged | decrease in luminescence (α-synuclein 5′ UTR; 50 mM DFO): 25% | decrease in luminescence (α-synuclein 5′ UTR; 100 mM DFO, p<0.001): 50% | effect on luciferase activity (wild-type pGL3 vector): no effect | Tau mRNA levels (Tau mRNA): up-regulated; also recorded: dramatically changed | increase in induction for Tau mRNA (Tau mRNA; 16 hours treatment with DFO, relative to beta actin): 5 fold | TfR mRNA up-regulation in response to DFO ([1]; DFO (100 μM where stated), FIG. 4, relative to beta actin): 3 fold | TfR mRNA up-regulation in response to DFO ([1]; FIG. 5 (Tau experiment), 16 hours DFO where stated): 4.5 fold

zinc
TfR mRNA responsiveness to zinc (control for iron specificity) ([1]; FIG. 5): surprisingly responsive

iron
IRP-1 binding (to α-synuclein mRNA) [2]: reduced | fold reduction for Tau mRNA (Tau mRNA; 400 micromolar iron (16 h)): 0.66 fold | fold reduction for TfR mRNA ([1]; 400 micromolar iron (16 h), FIG. 5): 0.45 fold
